Results on twelve compounds are retold here after PMC10330001 (Chemistry (Weinheim an der Bergstrasse, Germany), 2023).

Where two headings read alike, the source gives them in different places.

Experiment [1] has as its target T1, SARS-CoV-2 Mpro (Severe acute respiratory syndrome coronavirus 2, UniProt P0DTD1). The experiment can be described thus: biochemical. It counts as biochemical.
Another experiment deals with T2, HCoV-HKU1 main protease (Human coronavirus HKU1, UniProt P0C6X2).
T2 sequence (P0C6X2 3335-3637 limits assumed): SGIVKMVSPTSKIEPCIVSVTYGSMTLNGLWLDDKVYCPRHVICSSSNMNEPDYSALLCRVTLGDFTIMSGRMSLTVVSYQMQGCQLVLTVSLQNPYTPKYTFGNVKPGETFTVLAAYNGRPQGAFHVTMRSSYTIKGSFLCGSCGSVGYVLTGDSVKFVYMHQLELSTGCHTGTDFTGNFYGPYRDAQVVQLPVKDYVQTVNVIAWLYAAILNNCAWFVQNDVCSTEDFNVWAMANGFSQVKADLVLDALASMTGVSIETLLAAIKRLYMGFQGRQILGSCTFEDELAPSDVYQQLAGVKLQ
The experiment can be described thus: biochemical.

For a further experiment, the target named is HCoV-NL63 main protease (Human coronavirus NL63, UniProt P0C6X5). The experiment can be described thus: biochemical.
Sequence of HCoV-NL63 main protease (P0C6X5 2940-3242 limits assumed): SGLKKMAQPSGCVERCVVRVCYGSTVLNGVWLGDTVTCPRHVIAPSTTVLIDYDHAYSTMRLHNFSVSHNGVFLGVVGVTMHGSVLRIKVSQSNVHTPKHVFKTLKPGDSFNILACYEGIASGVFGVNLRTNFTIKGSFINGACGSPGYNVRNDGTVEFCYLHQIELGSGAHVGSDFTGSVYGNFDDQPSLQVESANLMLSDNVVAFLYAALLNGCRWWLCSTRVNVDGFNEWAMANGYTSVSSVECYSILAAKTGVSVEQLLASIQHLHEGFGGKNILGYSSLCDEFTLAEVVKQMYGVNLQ
In experiment [2] the test system is SARS-CoV-2 (USA-WA1/2020). The note with it: read-out: antiviral EC50; comparison value for the Caco2-hACE2 result; ref 9b; cited from earlier work.
Experiment [3] addresses T1, SARS-CoV-2 Mpro. Kind of experiment: cell-based.
The target of another experiment is SARS-CoV main protease (Severe acute respiratory syndrome coronavirus, UniProt P0C6X7). The experiment can be described thus: biochemical.
The target in another experiment is MERS-CoV main protease (Middle East respiratory syndrome-related coronavirus, UniProt K9N7C7). Kind of experiment: biochemical.
Sequence of MERS-CoV main protease (K9N7C7 3248-3553 limits assumed): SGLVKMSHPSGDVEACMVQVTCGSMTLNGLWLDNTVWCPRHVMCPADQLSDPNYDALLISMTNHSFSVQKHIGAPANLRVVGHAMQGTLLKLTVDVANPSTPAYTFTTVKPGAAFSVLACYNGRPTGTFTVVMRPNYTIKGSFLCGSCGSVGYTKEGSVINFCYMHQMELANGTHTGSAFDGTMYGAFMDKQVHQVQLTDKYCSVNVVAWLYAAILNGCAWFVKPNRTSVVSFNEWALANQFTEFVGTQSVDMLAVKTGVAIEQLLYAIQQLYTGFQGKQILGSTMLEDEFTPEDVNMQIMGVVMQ
A further experiment has as its target HCoV-229E main protease (Human coronavirus 229E, UniProt P0C6X1). The experiment can be described thus: biochemical.
The target of a further experiment is T3, HCoV-OC43 main protease (Human coronavirus OC43, UniProt P0C6X6).
T3 sequence (P0C6X6 3247-3549 limits assumed): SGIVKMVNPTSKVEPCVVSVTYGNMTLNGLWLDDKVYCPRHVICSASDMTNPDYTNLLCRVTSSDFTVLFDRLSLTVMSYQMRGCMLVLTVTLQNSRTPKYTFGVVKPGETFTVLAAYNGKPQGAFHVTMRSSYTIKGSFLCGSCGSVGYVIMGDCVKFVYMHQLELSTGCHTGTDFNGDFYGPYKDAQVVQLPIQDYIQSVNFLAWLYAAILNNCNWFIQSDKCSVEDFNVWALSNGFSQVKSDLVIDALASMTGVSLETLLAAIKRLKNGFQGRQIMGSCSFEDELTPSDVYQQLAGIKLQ
Kind of experiment: biochemical.

Experiment [4] deals with SARS-CoV-2 (USA-WA1/2020). The experiment can be described thus: microbe, parasite or virus in culture. In kind it is cell-based.
Experiment [5] relates to SARS-CoV-2 (USA-WA1/2020). It counts as cell-based.

The term IC50 denotes the midpoint of a concentration-inhibition curve. The term EC50 denotes the concentration needed to bring the measured effect to its halfway point.

Sequence of HCoV-229E main protease (P0C6X1 2966-3267): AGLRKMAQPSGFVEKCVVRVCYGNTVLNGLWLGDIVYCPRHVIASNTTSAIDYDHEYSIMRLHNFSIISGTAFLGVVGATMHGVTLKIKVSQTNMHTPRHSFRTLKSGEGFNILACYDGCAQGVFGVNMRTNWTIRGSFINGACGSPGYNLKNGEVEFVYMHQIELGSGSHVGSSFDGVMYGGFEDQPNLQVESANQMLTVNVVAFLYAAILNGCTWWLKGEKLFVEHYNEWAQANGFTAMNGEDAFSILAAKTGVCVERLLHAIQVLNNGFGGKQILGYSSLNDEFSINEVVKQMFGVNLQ

With `O=C(N[C@H]1CCC(=O)N([C@@H](Cc2cccc(F)c2)C(=O)N[C@@H](C[C@@H]2CCNC2=O)C(=O)C(=O)NC2CC2)C1)OCc1ccccc1` [M-2-7, Benzyl ((S)-1-((S)-1-(((S)-4-(cyclopropylamino)-3,4-dioxo-1-((S)-2-oxopyrrolidin-3-yl)butan-2-yl)amino)-3-(3-fluorophenyl)-1-oxopropan-2-yl)-6-oxopiperidin-3-yl) carbamate], the 50% inhibitory concentration (IC50) at SARS-CoV-2 Mpro [1] (read-out: SARS-CoV-2 IC50) worked out at 3990 nM.

As to `CC(C)C[C@H](NC(=O)OCc1ccccc1)C(=O)N[C@@H](CC1CCNC1=O)C(O)S(=O)(=O)O` (stereo partly drawn) [GC376, reference compound], the results for the 50% inhibitory concentration (IC50) on HCoV-HKU1 main protease (read-out: HKU1 IC50) and at HCoV-NL63 main protease (read-out: HCoV-NL63 IC50) were 12 ± 30 nM and 120 ± 20 nM, respectively. Moreover, in [2], the EC50 is 2900 nM.

In the case of `O=C[C@H](C[C@@H]1CCNC1=O)NC(=O)[C@H](CC1CCCCC1)N1C[C@@H](NC(=O)OCc2ccccc2)CCC1=O` [M-1-4, Benzyl ((S)-1-((S)-3-cyclohexyl-1-oxo-1-(((S)-1-oxo-3-((S)-2-oxopyrrolidin-3-yl)propan-2-yl)amino)propan-2-yl)-6-oxopiperidin-3-yl)carbamate], the IC50 is 1210 ± 200 nM against HCoV-HKU1 main protease; 730 ± 100 nM on SARS-CoV main protease; more than 20000 nM at MERS-CoV main protease; 9580 ± 1790 nM against HCoV-NL63 main protease; 610 ± 90 nM against HCoV-229E main protease; 3670 ± 630 nM at HCoV-OC43 main protease. Further, at SARS-CoV-2 Mpro [1], it took 950 ± 40 nM to reach half-maximal inhibition (IC50). Besides, the EC50 at SARS-CoV-2 Mpro [3] turned out to be 18000 nM; in experiment [4] (Severe acute respiratory syndrome coronavirus 2, read-out: antiviral EC50), 19000 nM.

`O=C(N[C@H]1CCC(=O)N([C@@H](CC2CC2)C(=O)N[C@@H](C[C@@H]2CCNC2=O)C(=O)C(=O)NC2CC2)C1)OCc1ccccc1` [M-2-8, Benzyl ((S)-1-((S)-3-cyclopropyl-1-(((S)-4-(cyclopropylamino)-3,4-dioxo-1-((S)-2-oxopyrrolidin-3-yl)butan-2-yl)amino)-1-oxopropan-2-yl)-6-oxopiperidin-3-yl)carbamate]: the half-maximal inhibitory concentration (IC50) at HCoV-HKU1 main protease was 2230 ± 460 nM; against SARS-CoV main protease, 3880 ± 670 nM; against MERS-CoV main protease, more than 20000 nM; against HCoV-NL63 main protease it was 10800 ± 2210 nM; at HCoV-229E main protease, 5670 ± 490 nM; against HCoV-OC43 main protease, 2600 ± 450 nM. On SARS-CoV-2 Mpro [1], half-maximal inhibition (IC50) required 2140 ± 90 nM.

As to `CC(C)C[C@@H](C(=O)N[C@@H](C[C@@H]1CCNC1=O)C(=O)C(=O)NC1CC1)N1C[C@@H](NC(=O)OCc2ccccc2)CCC1=O` [M-2-5, Benzyl ((S)-1-((S)-1-(((S)-4-(cyclopropylamino)-3,4-dioxo-1-((S)-2-oxopyrrolidin-3-yl)butan-2-yl)amino)-4-methyl-1-oxopentan-2-yl)-6-oxopiperidin-3-yl) carbamate], on SARS-CoV-2 Mpro [1] (read-out: SARS-CoV-2 IC50), the IC50 was found to be 3580 nM.

Take `O=C[C@H](C[C@@H]1CCNC1=O)NC(=O)[C@H](CC1CC1)N1C[C@@H](NC(=O)OCc2ccccc2)CCC1=O` [M-1-6, Benzyl ((S)-1-((S)-3-cyclopropyl-1-oxo-1-(((S)-1-oxo-3-((S)-2-oxopyrrolidin-3-yl)propan-2-yl)amino)propan-2-yl)-6-oxopiperidin-3-yl)carbamate]: the half-inhibitory concentration (IC50) at HCoV-HKU1 main protease was 120 ± 20 nM; against SARS-CoV main protease, 250 ± 20 nM; on MERS-CoV main protease, 850 ± 210 nM; against HCoV-NL63 main protease, 480 ± 60 nM; at HCoV-229E main protease, 180 ± 20 nM; on HCoV-OC43 main protease it was 180 ± 10 nM. For the same compound, the half-inhibitory concentration (IC50) against SARS-CoV-2 Mpro [1] amounted to 80 ± 10 nM. The compound also registered an EC50 on SARS-CoV-2 Mpro [3] of more than 60000 nM.

For the compound `CC(C)C[C@@H](C(=O)N[C@H](C=O)C[C@@H]1CCNC1=O)N1C[C@@H](NC(=O)OCc2ccccc2)CC1=O` [M-1-1, Benzyl ((S)-1-((S)-4-methyl-1-oxo-1-(((S)-1-oxo-3-((S)-2-oxopyrrolidin-3-yl)propan-2-yl)amino)pentan-2-yl)-5-oxopyrrolidin-3-yl) carbamate], at SARS-CoV-2 Mpro [1] (read-out: SARS-CoV-2 IC50), the IC50 was 510 nM.

Compound `O=C[C@H](C[C@@H]1CCNC1=O)NC(=O)[C@H](Cc1cccc(F)c1)N1C[C@@H](NC(=O)OCc2ccccc2)CCC1=O` [M-1-5, Benzyl ((S)-1-((S)-3-(3-fluorophenyl)-1-oxo-1-(((S)-1-oxo-3-((S)-2-oxopyrrolidin-3-yl)propan-2-yl)amino)propan-2-yl)-6-oxopiperidin-3-yl)carbamate] registered an EC50 on SARS-CoV-2 Mpro [3] of 49600 nM.

`CC(C)C[C@@H](C(=O)N[C@H](C=O)C[C@@H]1CCNC1=O)N1C[C@@H](NC(=O)OCc2cc(F)cc(F)c2)CCC1=O` [M-1-7, 3,5-difluorobenzyl ((S)-1-((S)-4-methyl-1-oxo-1-(((S)-1-oxo-3-((S)-2-oxopyrrolidin-3-yl)propan-2-yl)amino)pentan-2-yl)-6-oxopiperidin-3-yl)carbamate]: at SARS-CoV-2 Mpro [3], the midpoint of the response, the EC50, lay at 27300 nM. The compound further came in with a half-inhibitory concentration (IC50) against SARS-CoV-2 Mpro [1] of 190 nM.

Turning to `CC(C)C[C@@H](C(=O)N[C@H](C=O)C[C@@H]1CCNC1=O)N1C[C@@H](NC(=O)OCc2ccccc2)CCC1=O` [M-1-3, Benzyl ((S)-1-((S)-4-methyl-1-oxo-1-(((S)-1-oxo-3-((S)-2-oxopyrrolidin-3-yl)propan-2-yl)amino)pentan-2-yl)-6-oxopiperidin-3-yl)carbamate], the IC50 against HCoV-HKU1 main protease is 33 ± 10 nM; against SARS-CoV main protease, 160 ± 10 nM; on MERS-CoV main protease, 410 ± 50 nM; on HCoV-NL63 main protease it was 890 ± 10 nM; against HCoV-229E main protease it was 62 ± 10 nM; against HCoV-OC43 main protease it was 710 ± 20 nM. This compound also had a half-inhibitory concentration (IC50) on SARS-CoV-2 Mpro [1] of 80 ± 10 nM. The same compound returned a concentration giving a half-maximal response (EC50) on SARS-CoV-2 Mpro [3] of more than 60000 nM. Moreover, the antiviral activity entry in experiment [5] and in experiment [4] was “not active” each time.

With `O=C(N[C@H]1CCC(=O)N([C@@H](CC2CCCCC2)C(=O)N[C@@H](C[C@@H]2CCNC2=O)C(=O)C(=O)NC2CC2)C1)OCc1ccccc1` [M-2-6, Benzyl ((S)-1-((S)-3-cyclohexyl-1-(((S)-4-(cyclopropylamino)-3,4-dioxo-1-((S)-2-oxopyrrolidin-3-yl)butan-2-yl)amino)-1-oxopropan-2-yl)-6-oxopiperidin-3-yl) carbamate], the half-inhibitory concentration (IC50) on SARS-CoV-2 Mpro [1] (read-out: SARS-CoV-2 IC50) came out at 4430 nM.

For `CC(C)C[C@@H](C(=O)N[C@@H](C[C@@H]1CCNC1=O)C(=O)C(=O)NC1CC1)N1C[C@@H](NC(=O)OCc2ccccc2)CC1=O` [M-2-3, Benzyl ((S)-1-((S)-1-(((S)-4-(cyclopropylamino)-3,4-dioxo-1-((S)-2-oxopyrrolidin-3-yl)butan-2-yl)amino)-4-methyl-1-oxopentan-2-yl)-5-oxopyrrolidin-3-yl)carbamate], the IC50 on HCoV-HKU1 main protease turned out to be 390 ± 30 nM; against SARS-CoV main protease it was 2260 ± 390 nM; against MERS-CoV main protease, 8020 ± 2070 nM; against HCoV-NL63 main protease, 830 ± 100 nM; against HCoV-229E main protease it was 690 ± 80 nM; against HCoV-OC43 main protease, 120 ± 10 nM. The compound further showed a concentration for half-maximal inhibition (IC50) on SARS-CoV-2 Mpro [1] of 1310 ± 100 nM.
